Data as given in patent publication US10077261B2, “Imidazolin-5-one derivative useful as FASN inhibitors for the treatment of cancer” (Janssen Pharmaceutica NV, priority 2012, dated 2018).

Legend:
A2780 ovarian cells [1] = test: A2780 ovarian cell proliferation assay in lipid reduced medium, with palmitate (MTT); format: cell-based; conditions: Homo sapiens, A2780, 96 h; read-out: pIC50 A2780 Ovarian Cell, With Palmitate (converted)
Outline: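 Seeded cells were switched next day to lipid-reduced serum, exposed to compound and 25 μM palmitate complexed with fatty-acid-free BSA, and incubated 96 h. Proliferation was then determined by MTT absorbance at 544 nm, with a best-fit curve of signal against concentration.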

[2] = molecular target: T1, hFASN enzyme (full length) (Homo sapiens, UniProt P49327); test: Fatty Acid Synthase (FASN) inhibition scintillation proximity assay; format: biochemical; conditions: for inhibition at 10 µM: read-out: Human FASN % inhibition @ 10 μM, 10 μM test compound; for IC50: read-out: Human FASN pIC50 (converted)
T1 construct: 10 μL hFASN enzyme (full length, 300 ng, purified in house); made in house
T1 sequence (P49327 whole entry): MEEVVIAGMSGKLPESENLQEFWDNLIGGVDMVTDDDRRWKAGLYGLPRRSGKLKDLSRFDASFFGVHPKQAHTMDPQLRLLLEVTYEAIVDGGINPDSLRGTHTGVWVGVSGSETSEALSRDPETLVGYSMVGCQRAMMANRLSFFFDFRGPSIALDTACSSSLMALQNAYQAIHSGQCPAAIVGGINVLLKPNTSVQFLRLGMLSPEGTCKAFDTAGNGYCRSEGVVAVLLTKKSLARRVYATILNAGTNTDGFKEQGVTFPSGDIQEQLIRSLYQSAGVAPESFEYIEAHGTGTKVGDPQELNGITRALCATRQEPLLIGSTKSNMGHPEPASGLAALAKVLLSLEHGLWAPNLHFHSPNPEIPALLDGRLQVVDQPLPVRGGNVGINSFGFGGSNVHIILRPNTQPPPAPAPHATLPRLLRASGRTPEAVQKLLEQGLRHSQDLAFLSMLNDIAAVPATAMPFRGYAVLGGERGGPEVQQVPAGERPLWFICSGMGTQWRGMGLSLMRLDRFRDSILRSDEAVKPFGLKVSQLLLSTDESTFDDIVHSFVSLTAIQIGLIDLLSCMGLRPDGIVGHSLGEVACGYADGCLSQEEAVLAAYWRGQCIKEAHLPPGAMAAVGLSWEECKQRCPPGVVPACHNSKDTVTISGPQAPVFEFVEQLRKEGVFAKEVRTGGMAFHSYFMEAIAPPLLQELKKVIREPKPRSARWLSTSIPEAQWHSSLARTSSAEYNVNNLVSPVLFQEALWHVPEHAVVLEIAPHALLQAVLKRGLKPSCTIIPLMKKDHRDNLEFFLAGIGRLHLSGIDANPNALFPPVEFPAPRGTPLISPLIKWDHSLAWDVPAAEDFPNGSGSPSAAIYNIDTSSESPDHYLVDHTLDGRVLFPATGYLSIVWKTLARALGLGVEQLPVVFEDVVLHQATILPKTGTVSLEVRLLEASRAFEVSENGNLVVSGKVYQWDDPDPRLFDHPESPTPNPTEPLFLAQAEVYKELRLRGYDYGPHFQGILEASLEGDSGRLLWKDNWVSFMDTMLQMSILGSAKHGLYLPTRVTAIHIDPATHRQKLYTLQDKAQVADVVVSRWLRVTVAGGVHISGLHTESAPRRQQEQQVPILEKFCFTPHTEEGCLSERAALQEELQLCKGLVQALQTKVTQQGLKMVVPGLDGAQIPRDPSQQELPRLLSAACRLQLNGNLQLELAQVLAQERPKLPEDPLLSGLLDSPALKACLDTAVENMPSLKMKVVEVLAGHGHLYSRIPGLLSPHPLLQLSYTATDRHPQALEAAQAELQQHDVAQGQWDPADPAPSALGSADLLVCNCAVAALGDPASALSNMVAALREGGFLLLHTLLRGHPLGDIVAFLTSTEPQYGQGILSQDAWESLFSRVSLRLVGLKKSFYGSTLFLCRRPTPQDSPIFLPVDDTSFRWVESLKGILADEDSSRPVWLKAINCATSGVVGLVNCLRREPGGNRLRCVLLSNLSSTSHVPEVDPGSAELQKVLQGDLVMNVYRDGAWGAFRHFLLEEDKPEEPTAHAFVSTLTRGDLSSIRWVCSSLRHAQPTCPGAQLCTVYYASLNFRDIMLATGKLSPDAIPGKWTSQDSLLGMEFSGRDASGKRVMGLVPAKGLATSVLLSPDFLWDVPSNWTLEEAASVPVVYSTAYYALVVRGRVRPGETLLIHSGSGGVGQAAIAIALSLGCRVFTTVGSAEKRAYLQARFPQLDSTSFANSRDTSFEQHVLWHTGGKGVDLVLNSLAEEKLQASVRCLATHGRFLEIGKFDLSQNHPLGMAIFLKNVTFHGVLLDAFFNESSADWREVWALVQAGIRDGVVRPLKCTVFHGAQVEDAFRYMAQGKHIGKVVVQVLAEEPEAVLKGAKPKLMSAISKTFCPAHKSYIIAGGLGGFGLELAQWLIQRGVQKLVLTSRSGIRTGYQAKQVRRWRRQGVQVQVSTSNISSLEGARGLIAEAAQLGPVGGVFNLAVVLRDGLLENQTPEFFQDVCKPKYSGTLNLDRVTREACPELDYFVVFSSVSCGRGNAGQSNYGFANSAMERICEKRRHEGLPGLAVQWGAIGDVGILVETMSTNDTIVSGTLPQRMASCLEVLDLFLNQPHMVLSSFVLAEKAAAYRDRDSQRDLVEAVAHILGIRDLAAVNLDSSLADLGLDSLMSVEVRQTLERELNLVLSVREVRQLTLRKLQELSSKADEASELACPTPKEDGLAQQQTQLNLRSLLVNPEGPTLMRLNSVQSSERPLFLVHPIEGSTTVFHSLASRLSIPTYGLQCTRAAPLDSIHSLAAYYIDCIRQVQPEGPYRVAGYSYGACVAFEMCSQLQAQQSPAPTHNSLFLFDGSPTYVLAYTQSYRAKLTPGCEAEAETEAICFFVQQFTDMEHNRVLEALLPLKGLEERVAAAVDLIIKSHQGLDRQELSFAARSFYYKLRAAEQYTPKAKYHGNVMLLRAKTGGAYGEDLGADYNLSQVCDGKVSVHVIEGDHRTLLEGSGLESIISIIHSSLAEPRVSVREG
Outline: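 Full-length in-house purified enzyme (300 ng) was tested in 100 mM KH2PO4 pH 7.5, 1 mM DTT with ³H-acetyl-CoA and malonyl-CoA as substrates; compounds ranged 0.01–30 μM. Reactions were stopped with streptavidin imaging beads, read by LEADseeker at 610 nm, and fitted to a 4-parameter logistic curve.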

A2780 ovarian cells [3] = test: A2780 ovarian cell proliferation assay in lipid reduced medium, without palmitate (MTT); format: cell-based; conditions: Homo sapiens, A2780, 96 h; read-out: pIC50 A2780 Ovarian Cell, Without Palmitate (converted)

SMILES	IC50 (A2780 ovarian cells [1]) [µM]	inhibition at 10 µM [2] [%]	IC50 [2] [µM]	IC50 (A2780 ovarian cells [3]) [µM]
Cc1cc(-c2cc(C)c3ccc(Br)cc3n2)ccc1C1=NC2(CC2)C(=O)N1CC1CN(C(=O)C2(C)CC2)C1 [compound 605, 5-[4-(7-Bromo-4-methylquinolin-2-yl)-2-methylphenyl]-6-({1-[(1-methylcyclopropyl)carbonyl]azetidin-3-yl}methyl)-4,6-diazaspiro[2.4]hept-4-en-7-one]	6.31	62	6.61	4.79
Cc1cc(-c2ccc3nn(C)c(C#N)c3c2)ccc1C1=NC2(CC2)C(=O)N1CC1CN(C(=O)C2CC2)C1 [compound 610]	4.57	87	1.05	2.88
N#Cc1ccc2ccc(-c3ccc(C4=NC5(CC5)C(=O)N4CC4CN(C(=O)C5CC5)C4)cc3)cc2n1 [compound 611, 7-[4-(6-{[1-(Cyclopropylcarbonyl)azetidin-3-yl]methyl}-7-oxo-4,6-diazaspiro[2.4]hept-4-en-5-yl)phenyl]quinolin-2-carbonitrile]	> 10	46	~10	> 10
Cn1ncc2cc(-c3ccc(C4=NC5(CC5)C(=O)N4CC4CN(C(=O)C5CC5)C4)cc3Cl)ccc21 [compound 612, 5-[3-Chloro-4-(1-methyl-1H-indazol-5-yl)phenyl]-6-{[1-(cyclopropylcarbonyl)azetidin-3-yl]methyk}-4,6-diazaspiro[2.4]hept-4-en-7-one]	> 10	74	2.04	3.8
Cc1cc(-c2ccc3ccc(C(F)(F)F)nc3c2)ccc1C1=NC2(CC2)C(=O)N1CC1CN(C(=O)C2(C)CC2)C1 [compound 620, 6-({1-[(1-Methylcyclopropyl)carbonyl]azetidin-3-yl}methyl)-5-{2-methyl-4-[2-(trifluoromethyl)quinolin-7-yl]phenyl}-4,6-diazaspiro[2.4]hept-4-en-7-one]	> 10	71	3.98	~4.79
Cc1cc(-c2ccc3c(C)cc(Cl)nc3c2)ccc1C1=NC2(CC2)C(=O)N1CC1CN(C(=O)C2(C)CC2)C1 [compound 624, 5-[4-(2-Chloro-4-methylquinolin-7-yl)-2-methylphenyl]-6-({1-[(1-methylcyclopropyl)carbonyl]azetidin-3-yl}methyl)-4,6-diazaspiro[2.4]hept-4-en-7-one]	6.61	76	2.24	1.45
Cc1cc(-c2cc(Cl)c3cn[nH]c3c2)ccc1C1=NC2(CC2)C(=O)N1CC1CN(C(=O)C2CC2)C1 [compound 629, 5-[4-(4-Chloro-1H-indazol-6-yl)-2-methylphenyl]-6-{[1-(cyclopropylcarbonyl)azetidin-3-yl]methyl}-4,6-diazaspiro[2.4]hept-4-en-7-one]	> 10	55	7.41	7.76
O=C(C1CC1)N1CC(CN2C(=O)C3(CC3)N=C2c2ccc(-c3cc(C(F)(F)F)ccc3F)cc2F)C1 [compound 630, 6-{[1-(Cyclopropylcarbonyl)azetidin-3-yl]methyl}-5-[2′,3-difluoro-5′-(trifluoromethyl)biphenyl-4-yl]-4,6-diazaspiro[2.4]hept-4-en-7-one]	> 10	67	3.16	4.07
CC(C)S(=O)(=O)c1cccc(-c2ccc(C3=NC4(CC4)C(=O)N3CC3CN(C(=O)C4CC4)C3)c(F)c2)c1 [compound 631, 6-{[1-(Cyclopropylcarbonyl)azetidin-3-yl]methyl}-5-{3-fluoro-3′-[(1-methylethyl)sulfonyl]biphenyl-4-yl}-4,6-diazaspiro[2.4]hept-4-en-7-one]	> 10	47	8.51	5.89

Now from value to compound:

IC50 (A2780 ovarian cells [1]) [µM]	inhibition at 10 µM [2] [%]	IC50 [2] [µM]	IC50 (A2780 ovarian cells [3]) [µM]	SMILES
> 10	70	2.75	~2.4	CC(C)S(=O)(=O)c1cccc(-c2ccc(C3=NC4(CC4)C(=O)N3C[C@@H]3CCN(C(=O)C4CC4)C3)c(F)c2)c1 [compound 632, 6-{[(3R)-1-(Cyclopropylcarbonyl)pyrrolidin-3-yl]methyl}-5-{3-fluoro-3′-[(1-methylethyl)sulfonyl]biphenyl-4-yl}-4,6-diazaspiro[2.4]hept-4-en-7-one]
> 10	56	8.32	5.25	Cc1cc(-c2cccc(S(C)(=O)=O)c2)ccc1C1=NC2(CC2)C(=O)N1C[C@@H]1CCN(C(=O)C2CC2)C1 [compound 633, 6-{[(3R)-1-(Cyclopropylcarbonyl)pyrrolidin-3-yl]methyl}-5-[3-methyl-3′-(methylsulfonyl)biphenyl-4-yl]-4,6-diazaspiro[2.4]hept-4-en-7-one]
> 10	68	3.02	2	CS(=O)(=O)c1cccc(-c2ccc(C3=NC4(CC4)C(=O)N3C[C@@H]3CCN(C(=O)C4CC4)C3)c(F)c2)c1 [compound 634, 6-{[(3R)-1-(Cyclopropylcarbonyl)pyrrolidin-3-yl]methyl}-5-[3-fluoro-3′-(methylsulfonyl)biphenyl-4-yl]-4,6-diazaspiro[2.4]hept-4-en-7-one]
> 10	59	6.76	~5.89	Cc1cc(-c2cccc(S(=O)(=O)C(C)C)c2)ccc1C1=NC2(CC2)C(=O)N1C[C@@H]1CCN(C(=O)C2CC2)C1 [compound 636, 6-{[(3R)-1-(Cyclopropylcarbonyl)pyrrolidin-3-yl]methyl}-5-{3-methyl-3′-[(1-methylethyl)sulfonyl]biphenyl-4-yl}-4,6-diazaspiro[2.4]hept-4-en-7-one]
> 10	64	5.37	8.32	Cc1cc(-c2cccc(S(=O)(=O)C3CC3)c2)ccc1C1=NC2(CC2)C(=O)N1CC1CN(C(=O)C2CC2)C1 [compound 640, 6-{[1-(Cyclopropylcarbonyl)azetidin-3-yl]methyl}-5-[3′-(cyclopropylsulfonyl)-3-methylbiphenyl-4-yl]-4,6-diazaspiro[2.4]hept-4-en-7-one]
> 10	88	1.17	2.45	Cc1cc(-c2cccc(S(=O)(=O)C3CC3)c2)ccc1C1=NC2(CC2)C(=O)N1C[C@@H]1CCN(C(=O)C2CC2)C1 [compound 646, 6-{[(3R)-1-(Cyclopropylcarbonyl)pyrrolidin-3-yl]methyl}-5-[3′-(cyclopropylsulfonyl)-3-methylbiphenyl-4-yl]-4,6-diazaspiro[2.4]hept-4-en-7-one]
> 10	74	2.57	2.51	Cn1c(-c2ccc(C3=NC4(CC4)C(=O)N3CC3CN(C(=O)C4CC4)C3)c(F)c2)nc2ccccc21 [compound 648, 6-{[1-(Cyclopropylcarbonyl)azetidin-3-yl]methyl}-5-[2-fluoro-4-(1-methyl-1H-benzimidazol-2-yl)phenyl]-4,6-diazaspiro[2.4]hept-4-en-7-one]
> 10	84	1.35	4.9	Cc1cc(-c2cccc(SC3CC3)c2)ccc1C1=NC2(CC2)C(=O)N1CC1CN(C(=O)C2CC2)C1 [compound 650, 6-{[1-(Cyclopropylcarbonyl)azetidin-3-yl]methyl}-5-[3′-(cyclopropylsulfanyl)-3-methylbiphenyl-4-yl]-4,6-diazaspiro[2.4]hept-4-en-7-one]
> 10	77	3.09	2.75	O=C(C1CC1)N1CC(CN2C(=O)C3(CC3)N=C2c2ccc(-c3cccc(S(=O)(=O)C4CC4)c3)cc2F)C1 [compound 651, 6-{[1-(Cyclopropylcarbonyl)azetidin-3-yl]methyl}-5-[3′-(cyclopropylsulfonyl)-3-fluorobiphenyl-4-yl]-4,6-diazaspiro[2.4]hept-4-en-7-one]
> 10	71	3.02	4.17	Cn1c(-c2ccc(C3=NC4(CC4)C(=O)N3CC3CN(C(=O)C4CC4)C3)c(F)c2)nc2ccc(F)cc21 [compound 653, 6-{[1-(Cyclopropylcarbonyl)azetidin-3-yl]methyl}-5-[2-fluoro-4-(6-fluoro-1-methyl-1H-benzimidazol-2-yl)phenyl]-4,6-diazaspiro[2.4]hept-4-en-7-one]
> 10	83	1.15	2.19	Cc1nc2ccc(-c3ccc(C4=NC5(CC5)C(=O)N4CC4CN(C(=O)C5CC5)C4)c(F)c3)cc2n1C [compound 654, 6-{[1-(Cyclopropylcarbonyl)azetidin-3-yl]methyl}-5-[4-(1,2-dimethyl-1H-benzimidazol-6-yl)-2-fluorophenyl]-4,6-diazaspiro[2.4]hept-4-en-7-one]
> 10	87	3.72	~2.88	COC(=O)N1CC[C@@H](CN2C(=O)C3(CCOCC3)N=C2c2ccc(-c3ccc4cccnc4c3)cc2)C1 [compound 664, Methyl (3S)-3-{[4-oxo-2-(4-quinolin-7-ylphenyl)-8-oxa-1,3-diazaspiro[4.5]dec-1-en-3-yl]methyl}pyrrolidine-1-carboxylate]
